Here are results for five compounds from patent US20040157268A1, “Conformational assays to detect binding to membrane spanning, signal-transducing proteins” (priority 2001, published 2004).

For test [1], the target named is T1, FM-β2AR (Homo sapiens, UniProt P07550). Put plainly: Quenching of FM-β2AR fluorescence (KI, oxyl-NHS, nitroxide fatty acids), Stern-Volmer. Conditions: for quenching constant Ksv (nitroxide fatty acids): total lipid constant with stearic acid, n=3. The arrangement: made in house. The class given is biochemical.
Test [2] deals with T1, FM-β2AR. The experiment in a line: Fluorescence intensity of FM-β2AR (fluorescein maleimide at Cys265), time course. Particulars: ligand added to FM-β2AR, in words.
The test system of test [3] is FM-β2AR. The experiment in a line: Quenching of FM-β2AR fluorescence (KI, oxyl-NHS, nitroxide fatty acids), Stern-Volmer. The class given is biochemical, human. Conditions: ISO-induced change in fluorescence with quencher vs without; 250 mM KI vs 250 mM KCl; Oxyl-NHS bound to K224 in TM5; ALP reversal as measure; n=3.
In test [4] the target is T1, FM-β2AR. Put plainly: Fluorescence lifetime analysis of FM-β2AR (frequency domain). The class given is biochemical. On the set-up: made in house. The source says:
Fluorescence lifetime analysis of fluorescein labeled β2AR. […] The instrument covered a wide frequency range (4-5000 MHz), which allowed detection of lifetimes ranging from several nanoseconds to a few picoseconds. Samples were placed in a 10-mm path-length cuvette. The excitation was provided by the frequency-doubled output of a cavity-dumped pyridine-2 dye laser tuned at 370 nm synchronously pumped by a mode-locked argon ion laser. Sample emission was filtered through Corning 3-72 and 4-96 filters.
The governing equations for the time-resolved intensity decay data were assumed to be a sum of discrete exponentials as in I(t)=IoΣiαie^t/τ^i, where I(t) is the intensity decay, αi is the amplitude (pre-exponential factor) and τi is the fluorescence lifetime of the i-th discrete component; or a sum of Gaussian distribution functions as in the equation I(t)=IoΣiαiτe^t/τ and [formula]
In the frequency domain, the measured quantities at each frequency ω, are the phase shift (Øω) and demodulation factor (mω) of the emitted light versus the reference light.
Fractional intensity, amplitude, and lifetime parameters were recovered by a non-linear least squares procedure using the software developed at the Center for Fluorescence Spectroscopy. The measured data were compared with calculated values (Øcω,mcω) and the goodness of fit was characterized by [formula]
where ν is the number of degrees of freedom and δØ and δm are the uncertainties in the measured phase and modulation values, respectively. The sum extends over all frequencies (ω).

The mark [5] stands for this setting: Gaussian lifetime distribution, long component.
Setting [6] is: Gaussian lifetime distribution, short component.
[7] abbreviates: fit to discrete exponential functions.

T1 sequence (P07550 whole entry): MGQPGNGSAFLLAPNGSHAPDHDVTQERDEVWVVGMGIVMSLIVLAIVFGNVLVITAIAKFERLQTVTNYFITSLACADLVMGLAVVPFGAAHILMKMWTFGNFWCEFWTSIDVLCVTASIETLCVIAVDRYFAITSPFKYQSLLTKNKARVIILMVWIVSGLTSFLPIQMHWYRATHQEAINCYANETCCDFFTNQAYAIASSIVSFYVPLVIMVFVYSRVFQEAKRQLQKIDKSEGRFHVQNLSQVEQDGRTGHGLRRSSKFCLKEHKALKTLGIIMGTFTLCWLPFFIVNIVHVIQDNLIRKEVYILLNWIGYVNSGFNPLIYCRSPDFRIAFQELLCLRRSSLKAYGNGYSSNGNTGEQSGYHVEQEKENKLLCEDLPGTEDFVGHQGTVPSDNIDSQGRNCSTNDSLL

In the case of `CCCCCCCCCCCCCC1(CCCC(=O)O)OCC(C)(C)N1[O]` (stereo not shown) [5-DOX, 5-doxyl stearate], in test [1] (100 μM 5-DOX), the “effect on magnitude of the agonist-induced change in fluorescence” value was “no significant effect” and the “quenching of baseline fluorescence” value is 12%. Besides, the “quenching constant Ksv (nitroxide fatty acids)” value in test [1] was determined as 1.4 ± 0.2 mM⁻¹.

Turning to `CNC[C@H](O)c1ccc(O)c(O)c1` [epinephrine], the “change in FM-β2AR fluorescence” value in test [2] is “progressively smaller changes”.

Regarding `[I-].[K+]` [KI, potassium iodide], in test [3], the “% of control ISO response” value was found to be 55.4±8.3%.

As for `CCCCCCCCCCCCCCCC[N+](C)(C)C1CC(C)(C)N([O])C(C)(C)C1.[I-]` [CAT-16], in test [1] (50 μM CAT-16), the “effect on magnitude of the agonist-induced fluorescence change” value is reported as “more than two fold” and the “quenching of baseline fluorescence” value is recorded as about 12%. Besides, in test [1], the “quenching constant Ksv (nitroxide fatty acids)” value is 2.4 ± 0.1 mM⁻¹.

On to `CC(CCc1ccc(O)cc1)NCCc1ccc(O)c(O)c1` (stereo not shown) [DOB, dobutamine], for which the “change in FM-β2AR fluorescence” value in test [2] is “progressively smaller changes”. In test [4] (setting [5]), this compound yielded an FWHMLONG of 0.4±0.4 and a τLONG of 4.38±0.01 nsec. In test [4] (setting [6]), this compound registered an FWHMSHORT of 0.9±0.6 and a τSHORT of 1.78±0.01 nsec. Further, in test [4] (setting [7]), the “τ1 (nsec)” value worked out at 4.36 ± 0.01 nsec and the “τ2 (nsec)” value was 1.68 ± 0.3 nsec. Besides, the α2 in test [4] (fit to discrete exponential functions, fractional contribution of τ2) is 0.07 ± 0.01.
